This is an account of results in US8524746B2, “Dosage regimen for COMT inhibitors” (Bial-Portela & Ca., S.A., priority 2007, dated 2013).

Read-outs that look alike come from different tables or passages of the source. Some results are limits rather than exact numbers.

One assay relates to liver COMT. The conditions noted are these: rat, 3 mg/kg oral; for inhibition of liver COMT activity nine hours after administration: 9 h.
A short description of assay [1]: Brain levels of L-DOPA and its derivatives in rats treated with L-DOPA plus benserazide. The assay is classed as in vivo, rat. The following applies: 3 mg/kg oral.
For assay [2] the following is noted: 3 mg/kg oral.
[3] abbreviates: L-DOPA 12 mg/kg plus benserazide 3 mg/kg, all pre-treatment times (1, 7 and 24 h).
The mark [4] stands for this setting: L-DOPA plus benserazide, inhibitor given 24 h in advance.

Description for liver COMT: Livers from 60 day old male Wistar rats weighing 240-260 g (Harlan-Interfauna Ibérica, Barcelona, Spain), kept two per cage under controlled environmental conditions (12 h light/dark cycle and room temperature 24° C.) were used in all experiments. After decapitation, the organs were immediately removed and homogenised in 5 mM phosphate buffer of pH 7.8. COMT activity was evaluated by the ability to methylate adrenaline to metanephrine. […] The preincubation and incubation were carried out at 37° C. under conditions of light protection with continuous shaking and without oxygenation.
In experiments designed to evaluate the oral bioavailability of test substances, compounds were given by gastric tube to overnight fasted rats. Thereafter, at defined intervals, animals were killed by decapitation and livers removed and used to determine COMT activity as described above. At the end of the incubation period (5 min) the tubes were transferred to ice and the reaction was stopped by the addition of 200 μl of 2 M perchloric acid. The samples were then centrifuged (200×g, 4 min, 4° C.), and 500 μl aliquots of the supernatant, filtered on 0.22 μm pore size Spin-X filter tubes (Costar) were used for the assay of metanephrine. The assay of metanephrine was carried out by means of high pressure liquid chromatography with electrochemical detection. The lower limits for detection of metanephrine ranged from 350 to 500 fmol (0.5 to 1.0 μmol/mg protein/h).

With `Cc1c(Cl)c(C)[n+]([O-])c(Cl)c1-c1noc(-c2cc(O)c(O)c([N+](=O)[O-])c2)n1` [Compound A, 5-[3-(2,5-dichloro-4,6-dimethyl-1-oxy-pyridin-3-yl)-[1,2,4]oxadiazol-5-yl]-3-nitrobenzene-1,2-diol], in the assay with liver COMT, the “time to maximal inhibitory effect on liver COMT” value is reported as not above 60 min, the “inhibition of liver COMT activity nine hours after administration” value is on record as 90 % of control levels and the “inhibition of liver COMT activity 24 hours after administration” value is recorded as 60 % of controls levels. Moreover, in assay [1] (setting [3]), the “brain 3-O-methyl-L-DOPA” value is recorded as “marked decrease”, the “brain DOPAC” value is “significant increases”, the “brain L-DOPA” value is “significant increases” and the brain dopamine entry was “significant increases”. For the same compound, in assay [2] (setting [3]), the “circulating (plasma) 3-O-methyl-L-DOPA” value is given as “marked decrease” and the “plasma L-DOPA” value was “significant increases”.

For `Cc1ccc(C(=O)c2cc(O)c(O)c([N+](=O)[O-])c2)cc1` [tolcapone, 3,4-dihydroxy-4′-methyl-5-nitrobenzophenone], in the assay on liver COMT, the “time to maximal inhibitory effect on liver COMT” value is on record as not above 30 min, the “inhibition of liver COMT activity nine hours after administration” value is on record as “minimal inhibitory effects” and the “inhibition of liver COMT activity 24 hours after administration” value is recorded as “almost devoid of COMT inhibitory properties”. The “brain L-DOPA” value in assay [1] (L-DOPA plus benserazide, 2 and 7 h after administration) was “Significant changes”. Moreover, in assay [1] (setting [4]), the “brain 3-O-methyl-L-DOPA” value is “not affected”, the “brain DOPAC” value is given as “not affected”, the “brain L-DOPA” value is recorded as “not affected” and the brain dopamine entry was “not affected”. For the same compound, in assay [2] (setting [4]), the “plasma 3-O-methyl-L-DOPA” value is “not affected” and the “plasma L-DOPA” value was “not affected”.
